Data as given in BindingDB's records for doi:10.1021/jm201198w (University of Kentucky, 2012).

Target: Tyrosine-protein kinase SYK (Homo sapiens) (UniProt P43405)
Assay: Inhibition of SYK

Ki: 220 nM
Structure (SMILES): Nc1nc(Nc2ccc([C@H]3CC[C@H](N4CCOCC4)CC3)cc2)nn1-c1ccccn1
